Laboratory results: paper PMC10989020, “Preclinical characterization of a non-peptidomimetic HIV protease inhibitor with improved metabolic stability” (Antimicrobial Agents and Chemotherapy, 2024)
Like-named read-outs stand apart in the source and are kept apart here.

Tests used:
in vitro = assay type: cell-based; settings: human
Procedure: (§1) Compound cytotoxicity assessment in MT-4 cells, primary CD4+ T lymphocytes, and MDMs was carried out using a protocol identical to the antiviral assay except uninfected cells were used and tested with higher concentration ranges of test compounds. Assessment of cytotoxicity in additional human cell lines (Gal-PC3, Gal-HepG2, HEp-2, Huh-7, MRC-5, HepG2-NTCP, Huh7-Lunet HCV 1b and 2a replicons, NHBE, A549-hACE2) and primary human PBMCs (resting and stimulated with PHA/IL-2) and hepatocytes have been described previously ([19]). For all cytotoxicity assays, the CC50 value for puromycin was determined as a positive internal control and to assess assay sensitivity in each cell type. The effect of tested compounds on cell viability was measured using a CellTiter-Glo readout, performed according to the manufacturer’s recommendations.

HCV-1b = experiment: microbe, parasite or virus in culture; settings: Hepatitis C virus, Huh-7
[1] = test system: HIV-1 Gag (p55) polyprotein cleavage; experiment: Gag polyprotein processing immunoblot in transfected HEK293T cells; assay type: cell-based; settings: 2 days post-transfection, anti-p24 immunoblot
[2] = In vivo pharmacokinetics in dog; parameters: species or system Beagle dog
Procedure: (§2) Preclinical pharmacokinetic studies were performed in male Sprague–Dawley rats, beagle dogs, and cynomolgus monkeys (three animals per dosing group in each species) following federal and Institutional Animal Care and Use Committee (IACUC) guidelines as described previously ([32]). […] The oral fraction absorbed (F%) was calculated using the formula:
(§3) %F=( PO Dose AUC0−inf) x (IV Dose)/(IV Dose AUC0−inf) x (PO Dose)×100%

HIV-1IIIb = experiment: Two-drug in vitro combination assay in MT-2 cells (MacSynergy II); assay type: cell-based
Procedure: Anti-HIV-1 assays evaluating the in vitro antiviral effect of two-drug combinations were performed in MT-2 cells as previously described ([26]). Data were normalized to positive and negative controls in each plate and expressed as a percentage of protection from CPE-dependent cell death and analyzed with the MacSynergy II software. Combination data were analyzed at the 99% confidence level, with synergy/antagonism volumes defined as follows: high synergy (>100 µM^2%), moderate synergy (50 to <100 uM^2%), additivity (>−50 to <50 µM^2%), and antagonism (<−50 µM^2%).

Cytotoxicity in Gal-PC3 = assay type: cell-based; settings: human, Gal-PC3 cells
Procedure: as §1

[3] = test system: 20 HIV-1 clinical isolates; experiment: Antiviral assay in PBMCs with HIV-1 clinical isolates (RT endpoint); assay type: cell-based; settings: Human immunodeficiency virus 1, PBMC, 168 h, read-out: mean EC50
Procedure: Antiviral assays using fresh human PBMCs independently infected with a panel of clinical HIV-1 and HIV-2 isolates were performed by Southern Research as a contracted research study and assessed 7 days post-infection using reverse transcriptase (RT) endpoint assay. Antiviral assays using HIV-1 reporter viruses containing patient-derived sequences encoding all of PR and a portion of RT (amino acids 1–313) and conferring resistance to FDA-approved HIV PIs were performed by Monogram Biosciences Inc. (South San Francisco, CA) using their previously described Phenosense assay ([25]).

[4] = Cytotoxicity in uninfected MT-4 cells; assay type: cell-based, human; settings: human, uninfected (mock infected) MT-4 T cells, MT-4 T cell line
Procedure: as §1

[5] = In vivo pharmacokinetics in rat; parameters: species or system Sprague-Dawley rat
Procedure: as §2, §3

[6] = Metabolic stability of radiolabeled GS-9770 in human liver microsomes; assay type: in vitro ADME; settings: radiolabeled GS-9770, human liver microsomes
HBV = experiment: microbe, parasite or virus in culture; settings: Hepatitis B virus
Procedure: (§4) The hepatitis B virus (HBV) surface antigen (HBsAg) antiviral assay was performed as previously described ([28]) using ND-654 as a positive control. The respiratory syncytial virus (RSV) A2 HEp-2 antiviral assay was performed as previously described ([29]) using YM-53403 as a positive control. The severe acute respiratory syndrome coronavirus 2 (SARS-CoV-2) antiviral assay was performed as described previously ([30]) using remdesivir as a positive control.

[7] = Metabolic stability in human liver microsomes; assay type: in vitro ADME
[8] = Predicted clearance from dog liver microsome fractions; assay type: in vitro ADME
RSV = experiment: RSV-Fluc reporter antiviral assay; settings: human respiratory syncytial virus, NHBE
Procedure: as §4

[9] = test system: panel of 49 patient-derived HIV-1 reporter viruses with PI resistance-associated substitutions; assay type: cell-based
HIV-1 BaL = experiment: p24 production antiviral assay in monocyte-derived macrophages; assay type: cell-based; settings: Human immunodeficiency virus 1, Macrophage, HIV-1BaL infected
Excerpt: Antiviral assays performed in HIV-1BaL infected CD4 +T-lymphocytes and monocyte-derived macrophages (MDMs) have been described previously ([18]). Cell-free supernatants derived from the CD4 +T cell and macrophage cultures were harvested 7- and 12-days post-infection, respectively, and the amount of HIV present was quantified by p24 antigen enzyme-linked immunosorbent assay (ELISA, Perkin Elmer, Waltham, MA) performed according to the manufacturer’s protocol.

[10] = Repeated oral administration in dogs; assay type: in vivo; settings: high doses
HIV-1 IIIb = experiment: Dose-escalation resistance selection in MT-2 cells; assay type: cell-based
[11] = Cytotoxicity in cell lines of the non-HIV virus panel (summary); assay type: cell-based; settings: human, HepG2-NTCP, Huh7-Lunet replicon cells, NHBE, A549-ACE2, read-out: CC50 range in the corresponding cell lines
Procedure: as §1

[12] = Cytotoxicity in stimulated PBMCs; assay type: cell-based; settings: human
Procedure: as §1

Cytotoxicity in NHBE = assay type: cell-based; settings: human, NHBE cells
Procedure: as §1

## CC(C)(CC1(c2ccc(-c3cnn(C4CC4)n3)cc2)NC(=N)N(C(COC(=O)NC2(C(F)F)CC2)c2ccc(Cl)c(-c3ncnn3C(F)F)c2)C1=O)C(F)(F)F (stereo not shown) [GS-9770]
In vitro
  CC50: 15.1 ± 3 µM
HCV-1b
  EC50: 10.8 ± 0.5 µM
[1]
  concentration at which Gag polyprotein cleavage and release of mature p24 substantially reduced: 10 nM
  concentration giving complete inhibition of p24 formation: 100 nM
[2]; 1 mg/kg IV, 1 mg/kg
  CL: 18.3 ± 5 mL/min/kg
[2]; 1 mg/kg IV, 4–5 mg/kg PO
  tolerability at the doses tested: well tolerated
[2]; beagle, plasma, 1 mg/kg IV and 5 mg/kg PO, read-out: F% (oral bioavailability)
  bioavailability: 100 ± 20%
[2]; beagle, plasma, 1 mg/kg IV and 5 mg/kg PO, read-out: Terminal t1/2 (converted)
  half-life: 6.7 ± 0.6 h
[2]; beagle, plasma, 1 mg/kg IV, read-out: Vss
  Vd: 5 ± 0.5 L/kg
[2]; beagle, plasma, iv, 1 mg/kg, 1 mg/kg IV
  clearance: 18.8 mL/min/kg
HIV-1IIIb
  Antagonism volume: −3 ± 3 µM^2.%
  Combination effect: Additive
  Synergy volume: 23 ± 14 µM^2.%
Cytotoxicity in Gal-PC3
  CC50: 15 ± 4 µM
[3]
  EC50: 0.0073 µM
[4]
  CC50: 6.6 ± 1.3 µM
[5]; 1 mg/kg IV and 5 mg/kg PO
  F% (oral bioavailability): 45.9 ± 9.8%
[5]; 1 mg/kg IV, 4–5 mg/kg PO
  tolerability at the doses tested: well tolerated
[5]; male, Sprague-Dawley, plasma, 1 mg/kg IV
  clearance: 3.5 mL/min/kg
[5]; male, Sprague-Dawley, plasma, 1 mg/kg IV and 5 mg/kg PO, read-out: Terminal t1/2 (converted)
  half-life: 10.6 ± 1.4 h
[5]; male, Sprague-Dawley, plasma, 1 mg/kg IV, read-out: Vss
  Vd: 2.7 ± 0.3 L/kg
[5]; male, Sprague-Dawley, plasma, oral, 5 mg/kg, 1 mg/kg IV and 5 mg/kg PO, read-out: F% (oral bioavailability)
  bioavailability: 49%
[6]
  predicted human plasma clearance: 1.5 mL/min/kg
HBV
  EC50: 11 ± 4 µM
[7]
  Eh% (percent predicted hepatic extraction): 9%
  Predicted CL (predicted human clearance): 1.83 mL/min/kg
[7]; read-out: T½ in the presence of human liver microsomes
  half-life: > 6.58 h
[8]
  in vitro predicted blood CL: 12 mL/min/kg
RSV
  EC50: 2.5 ± 0.6 µM
[9]; virus 8, virus 11 and virus 42
  loss in susceptibility: 3 fold
[9]; virus 13 (L10I, M46I, G48V, I50V, V82A, L90M)
  mutant vs wild-type HIV EC50 FC: 21 fold
[9]; virus 29 (L10F/L, D30N, I54V, N88D, L90M)
  mutant vs wild-type HIV EC50 FC: 12 fold
[9]; virus 43 (L10I, M46L, I54V, V82A)
  mutant vs wild-type HIV EC50 FC: 11 fold
HIV-1 BaL
  EC50: 0.011 ± 0.014 µM
[10]
  finding after repeated oral administration: bronchoalveolar inflammation observed in the lungs of dogs
HIV-1 IIIb; variant L24I M46L A77I V82A
  GS-9770 concentration at variant first emergence: 100 nM
HIV-1 IIIb; variant M46L A77I V82A
  GS-9770 concentration at variant first emergence: 100 nM
[11]
  CC50: 4.7 to 15.1 µM
[12]
  CC50: 9.1 ± 0.6 µM
Cytotoxicity in NHBE
  CC50: 4.7 ± 1.7 µM
